The values below come from patent US11384060B2, “Amide compounds and use thereof” (ALPHALA CO., LTD., priority 2017, dated 2022).

Where two headings read alike, the source gives them in different places. Where only a bound is given, the exact number is not on record here.

For assay [1], the target named is T1, glucagon receptor (GCGR) overexpressed CHO-K1 cells or human primary hepatocytes (Homo sapiens, UniProt P47871).
T1 construct: expressed in transfected cells; host or cells: GCGR overexpressed CHO-K1 cells or human primary hepatocytes (endogenous receptor)
T1 sequence (P47871 26-477): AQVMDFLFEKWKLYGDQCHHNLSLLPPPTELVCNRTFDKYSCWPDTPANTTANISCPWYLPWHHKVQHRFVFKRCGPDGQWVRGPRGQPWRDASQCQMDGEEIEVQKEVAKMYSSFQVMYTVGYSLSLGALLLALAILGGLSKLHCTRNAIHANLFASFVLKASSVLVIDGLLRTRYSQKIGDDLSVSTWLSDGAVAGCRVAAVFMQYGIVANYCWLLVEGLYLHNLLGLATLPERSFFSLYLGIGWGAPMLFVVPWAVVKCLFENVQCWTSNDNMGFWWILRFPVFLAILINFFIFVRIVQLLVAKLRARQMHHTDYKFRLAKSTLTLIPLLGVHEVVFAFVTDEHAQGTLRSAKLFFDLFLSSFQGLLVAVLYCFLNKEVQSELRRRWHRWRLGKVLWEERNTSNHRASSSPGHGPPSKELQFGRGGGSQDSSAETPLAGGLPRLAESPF
The assay is described as follows: Glucagon cAMP inhibition assay (Cisbio cAMP Dynamic 2 HTRF). The format is cell-based. The essentials: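 GCGR-overexpressing CHO-K1 cells or human primary hepatocytes in HBSS with 0.1% BSA and 800 nM IBMX, pre-incubated 30 min with serially diluted compounds (1% DMSO final), then stimulated 30 min at room temperature with glucagon at its EC50. cAMP measured by HTRF after 60 min lysis; IC50 by non-linear regression.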
A general note: TR-FRET usually uses a lanthanide donor and a delayed reading to cut background.

Assay [2] has as its target T2, glucagon receptor (GCGR) (Homo sapiens, UniProt P47871).
T2 construct: expressed in transfected cells; host or cells: CHO-K1 cells overexpressing GCGR (membrane fractions)
The assay is described as follows: I125-glucagon binding assay (competition, GCGR membrane fractions). The essentials:
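Membranes from CHO-K1 cells overexpressing GCGR, 7.5 μg/well in 50 mM Tris pH 7.4 with 0.5% BSA, were preincubated 5 min with serially diluted compounds, then given 0.0625 nM final I^125-glucagon for 30 min at 25° C. Bound label was filtered on PEI-coated GF/B and counted; IC50 by non-linear regression.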

Where [3] appears, read: inhibition of glucagon (EC50 concentration) induced cAMP production.
Where [4] appears, read: competition with I125-glucagon 0.0625 nM, membrane fractions of GCGR overexpressed CHO-K1 cells.

T2 sequence (P47871 26-477): as above

In the case of `CCC(C)[C@@H](COc1cnc(-c2ccc(Cl)cc2Cl)nc1)Nc1ccc(C(=O)NCCC(=O)O)cc1` (stereo partly drawn) [Compound 12-10, 3-(4-(((2S)-1-((2-(2,4-dichlorophenyl)pyrimidin-5-yl)oxy)-3-methylpentan-2-yl)amino)benzamido)propanoic Acid], the “IC50 cAMP” value in assay [1] (setting [3]) was 0.89 µM. Also, the IC50 (as a rule, the midpoint of a concentration-inhibition curve) in assay [2] (setting [4]) amounted to 0.337 µM.

Take `CC(C)[C@@H](COc1ccc(-c2cc3ccccc3o2)c(F)c1)Nc1ccc(C(=O)NCCS(=O)(=O)O)cc1` [Compound 8-4, (S)-2-(4-((1-(4-(benzofuran-2-yl)-3-fluorophenoxy)-3-methylbutan-2-yl)amino)benzamido)ethane-1-sulfonic Acid]: in assay [1] (setting [3]), the “IC50 cAMP” value was 10.292 µM. In assay [2] (setting [4]), this compound had an IC50 of 1.72 µM.

Turning to `O=C(O)CCNC(=O)c1ccc(N[C@@H](Cc2ccccc2)C(=O)Nc2ccc(-c3ccc(Cl)cc3Cl)cc2)cc1` [Compound 23-2, (S)-3-(4-((1-((2′,4′-dichloro-[1,1′-biphenyl]-4-yl)amino)-1-oxo-3-phenylpropan-2-yl)amino)benzamido)propanoic Acid], the “IC50 cAMP” value in assay [1] is 5.2 µM. In addition, in assay [2], the IC50 is 0.462 µM.

Regarding `CC(C)COC[C@H](Cc1ccc(-c2cc(F)c(F)c(F)c2)cc1)Nc1ccc(C(=O)NCCC(=O)O)cc1` [Compound 19-31, (S)-3-(4-((1-isobutoxy-3-(3′,4′,5′-trifluoro-[1,1′-biphenyl]-4-yl)propan-2-yl)amino)benzamido)propanoic Acid], the “IC50 cAMP” value in assay [1] was found to be 1.341 µM. This compound came in with an IC50 in assay [2] of 0.5 µM.

For `CCCC[C@@H](COc1ccc(-c2ccc(C(F)(F)F)cc2Cl)cc1)Nc1ccc(C(=O)NCCC(=O)O)cc1` [Compound 1-19, (S)-3-(4-((1-((2′-chloro-4′-(trifluoromethyl)-[1,1′-biphenyl]-4-yl)oxy)hexan-2-yl)amino)benzamido)propanoic Acid], the “IC50 cAMP” value in assay [1] (setting [3]) came out at 0.093 µM. For the same compound, in assay [2] (setting [4]), the IC50 is 0.011 µM.

In the case of `Cc1cc(C)c(-c2ccc(NC(=O)[C@H](Cc3ccccc3)Nc3ccc(C(=O)NCCC(=O)O)cc3)cc2)c(C)c1` [Compound 23-3, (S)-3-(4-((1-oxo-3-phenyl-1-((2′,4′,6′-trimethyl-[1,1′-biphenyl]-4-yl)amino)propan-2-yl)amino)benzamido)propanoic Acid], in assay [1], the “IC50 cAMP” value came to 5.8 µM. Besides, in assay [2], the IC50 is 0.388 µM.

Take `CCCC[C@@H](COc1ccc(-c2ccc(C(F)(F)F)cc2Cl)c(Cl)c1)Nc1ccc(C(=O)NCCC(=O)O)cc1` [Compound 3-8, (S)-3-(4-((1-((2,2′-dichloro-4′-(trifluoromethyl)-[1,1′-biphenyl]-4-yl)oxy)hexan-2-yl)amino)benzamido)propanoic Acid]: the “IC50 cAMP” value in assay [1] (setting [3]) came to 0.035 µM. This compound displayed a 50% inhibitory concentration (IC50) in assay [2] (setting [4]) of 0.026 µM.

On to `CC[C@H](C)[C@@H](COc1ccc(-c2cc3ccccc3o2)cn1)Nc1ccc(C(=O)NCCC(=O)O)cc1` [Compound 15-15, 3-(4-(((2S,3S)-1-((5-(benzofuran-2-yl)pyridin-2-yl)oxy)-3-methylpentan-2-yl)amino)benzamido)propanoic Acid], for which the “IC50 cAMP” value in assay [1] turned out to be 0.03273 µM. Moreover, in assay [2], the 50% inhibitory concentration (IC50) was determined as 0.207 µM.

Regarding `CCOC(=O)CCNC(=O)c1ccc(N[C@@H](CC(C)C)C(=O)Nc2ccc(-c3cc4ccccc4o3)cc2)cc1` [Compound 23-6, Ethyl (S)-3-(4-((1-((4-(benzofuran-2-yl)phenyl)amino)-4-methyl-1-oxopentan-2-yl)amino)benzamido)propanoate], in assay [1], the “IC50 cAMP” value worked out at 0.181 µM. This compound displayed a half-maximal inhibitory concentration (IC50) in assay [2] of 2.51 µM.

As to `CC(C)(C)c1ccc(NC(=O)[C@H](Cc2ccc3ccccc3c2)Nc2ccc(C(=O)NCCC(=O)O)cc2)cc1` [Compound 23-20, (S)-3-(4-((1-((4-(tert-butyl)phenyl)amino)-3-(naphthalen-2-yl)-1-oxopropan-2-yl)amino)benzamido)propanoic Acid], the “IC50 cAMP” value in assay [1] is 4.7 µM. Besides, the IC50 in assay [2] was 0.724 µM.

As for `CC(C)C[C@@H](COc1cnc(-c2ccc(Cl)cc2Cl)nc1)Nc1ccc(C(=O)NCCC(=O)O)cc1` [Compound 12-11, (S)-3-(4-((1-((2-(2,4-dichlorophenyl)pyrimidin-5-yl)oxy)-4-methylpentan-2-yl)amino)benzamido)propanoic Acid], the “IC50 cAMP” value in assay [1] (setting [3]) stood at 3.585 µM. Also, the half-inhibitory concentration (IC50) in assay [2] (setting [4]) turned out to be 0.233 µM.

For the compound `CCOC(=O)CCNC(=O)c1ccc(N[C@H](COc2ccc(-c3nnc(C(C)(C)C)o3)cn2)c2ccc(-c3ccc(Cl)cc3Cl)cc2)cc1` [Compound 15-33, Ethyl (S)-3-(4-((2-((5-(5-(tert-butyl)-1,3,4-oxadiazol-2-yl)pyridin-2-yl)oxy)-1-(2′,4′-dichloro-[1,1′-biphenyl]-4-yl)ethyl)amino)benzamido)propanoate], the “IC50 cAMP” value in assay [1] was over 30 µM. For the same compound, the IC50 in assay [2] is over 30 µM.

In the case of `CC(C)COC[C@@H](Cc1ccc(-c2ccc(C(C)(C)C)cc2)cc1)Nc1ccc(C(=O)NCCC(=O)O)cc1` [Compound 19-17, (R)-3-(4-((1-(4′-(tert-butyl)-[1,1′-biphenyl]-4-yl)-3-isobutoxypropan-2-yl)amino)benzamido)propanoic Acid], in assay [1], the “IC50 cAMP” value worked out at 1.225 µM. The compound further registered an IC50 in assay [2] of 1.04 µM.

Take `CC(C)[C@@H](COc1nnc(-c2ccc(C(F)(F)F)cc2F)o1)Nc1ccc(C(=O)NCCC(=O)O)cc1` [Compound 22-17]: in assay [1], the “IC50 cAMP” value was over 30 µM. The IC50 in assay [2] was over 30 µM.

On to `CC(C)C[C@@H](COc1cc(F)c(-c2ccc(C(F)(F)F)cc2)c(F)c1)Nc1ccc(C(=O)NCCC(=O)O)cc1` [Compound 7-6, (S)-3-(4-((1-((2,6-difluoro-4′-(trifluoromethyl)-[1,1′-biphenyl]-4-yl)oxy)-4-methylpentan-2-yl)amino)benzamido)propanoic Acid], for which the “IC50 cAMP” value in assay [1] (setting [3]) amounted to 0.371 µM. In addition, the IC50 in assay [2] (setting [4]) was found to be 0.144 µM.

Regarding `CC(C)[C@@H](COc1cnc(-c2cc3ccccc3o2)nc1)Nc1ccc(C(=O)NCCC(=O)O)cc1` [Compound 12-2, (S)-3-(4-((1-((2-(benzofuran-2-yl)pyrimidin-5-yl)oxy)-3-methylbutan-2-yl)amino)benzamido)propanoic Acid], the “IC50 cAMP” value in assay [1] (setting [3]) was 6.849 µM. The compound further showed an IC50 in assay [2] (setting [4]) of 0.266 µM.

Consider `CCCOC[C@H](Cc1ccc(-c2c(C)cc(C)cc2C)cc1)Nc1ccc(C(=O)NCCC(=O)O)cc1` [Compound 19-16, (S)-3-(4-((1-propoxy-3-(2′,4′,6′-trimethyl-[1,1′-biphenyl]-4-yl)propan-2-yl)amino)benzamido)propanoic Acid], for which the “IC50 cAMP” value in assay [1] worked out at 1.729 µM. The compound also yielded an IC50 in assay [2] of 3.7 µM.

`CCCC[C@@H](COc1ccc(-c2cc3ccccc3o2)c(C)n1)Nc1ccc(C(=O)NCCC(=O)O)cc1` [Compound 18-1, (S)-3-(4-((1-((5-(benzofuran-2-yl)-6-methylpyridin-2-yl)oxy)hexan-2-yl)amino)benzamido)propanoic Acid]: the “IC50 cAMP” value in assay [1] is 0.25 µM. In assay [2], this compound displayed a 50% inhibitory concentration (IC50) of 0.386 µM.

`CC[C@H](C)[C@@H](COc1cc(C)c(-c2cc3ccccc3o2)c(C)c1)Nc1ccc(C(=O)NCCC(=O)O)cc1` [Compound 2-7, 3-(4-(((2S,3S)-1-(4-(benzofuran-2-yl)-3,5-dimethylphenoxy)-3-methylpentan-2-yl)amino)benzamido)propanoic Acid]: in assay [1] (setting [3]), the “IC50 cAMP” value turned out to be 0.468 µM. The same compound displayed an IC50 in assay [2] (setting [4]) of 0.158 µM.

With `CC(C)C[C@@H](COc1ccc(-c2ccc(C(F)(F)F)cc2)nn1)Nc1ccc(C(=O)NCCC(=O)O)cc1` [Compound 17-7, (S)-3-(4-((4-methyl-1-((6-(4-(trifluoromethyl)phenyl)pyridazin-3-yl)oxy)pentan-2-yl)amino)benzamido)propanoic Acid], the “IC50 cAMP” value in assay [1] (setting [3]) is 7.647 µM. Moreover, the IC50 in assay [2] (setting [4]) is 1.32 µM.

As for `CC[C@H](C)[C@@H](CSc1ccc(-c2ccc(C(F)(F)F)cc2)cc1)Nc1ccc(C(=O)NCCC(=O)O)cc1` [Compound 5-2, 3-(4-(((2S,3S)-3-methyl-1-((4′-(trifluoromethyl)-[1,1′-biphenyl]-4-yl)thio)pentan-2-yl)amino)benzamido)propanoic Acid], the “IC50 cAMP” value in assay [1] (setting [3]) was determined as 2.465 µM. In assay [2] (setting [4]), the half-maximal inhibitory concentration (IC50) is 1.19 µM.

On to `CCCC[C@@H](COc1nnc(-c2ccc(OC(F)(F)F)cc2)o1)Nc1ccc(C(=O)NCCC(=O)O)cc1` [Compound 22-2, (S)-3-(4-((1-((5-(4-(trifluoromethoxy)phenyl)-1,3,4-oxadiazol-2-yl)oxy)hexan-2-yl)amino)benzamido)propanoic Acid], for which the “IC50 cAMP” value in assay [1] was over 30 µM. This compound also registered a concentration for half-maximal inhibition (IC50) in assay [2] of 1.43 µM.

On to `CCCC[C@@H](COc1ccc(-c2ccc(C(F)(F)F)cc2F)c(OC)c1)Nc1ccc(C(=O)NCCC(=O)O)cn1` [Compound 14-2, (S)-3-(6-((1-((2′-fluoro-2-methoxy-4′-(trifluoromethyl)-[1,1′-biphenyl]-4-yl)oxy)hexan-2-yl)amino)nicotinamido)propanoic Acid], for which the “IC50 cAMP” value in assay [1] (setting [3]) came out at 0.508 µM. Besides, the concentration for half-maximal inhibition (IC50) in assay [2] (setting [4]) was determined as 0.074 µM.

As for `CC[C@H](C)[C@@H](COc1nnc(-c2ccc(C(F)(F)F)cc2)o1)Nc1ccc(C(=O)NCCC(=O)O)cc1` [Compound 22-10, 3-(4-(((2S,3S)-3-methyl-1-((5-(4-(trifluoromethyl)phenyl)-1,3,4-oxadiazol-2-yl)oxy)pentan-2-yl)amino)benzamido)propanoic Acid], the “IC50 cAMP” value in assay [1] is over 30 µM. In assay [2], the IC50 was over 30 µM.
